# According to patent US20210220340A1, “COMPOSITION FOR PREVENTION OR TREATMENT OF NEURODEGENERATIVE DISEASE” (THE ASAN FOUNDATION, priority 2018, published 2021):
# Legend:
# P301L tau = test: Tau accumulation on AMX treatment (western blotting); type: cell-based
# Method: (§1) Each type of cell was cultured under the culture conditions, a cell culture was restored, followed by preparing a particulate fraction in a 50 mM Tris buffer. Proteins obtained from the cell culture developed in a SDS polyacrylamide gel, transferred to an immobilon-P membrane (Millipore, USA), and reacted with antibodies overnight. Next day, western blots were washed, reacted with peroxidase-linked secondary antibodies at room temperature for 1 hour, followed by staining bands with 4-chloro-1-naphthol.
# (§2) FIG. 16 is a graph representing the percent activity (% activity) according to the concentrations of finally selected amlexanox (AMX) for various PDE isoforms, and FIGS. 17 and 18 show western blotting images representing the amyloid beta expression pattern and G93A SOD-1 and P301L tau expression when amyloid beta-accumulated pericytes and astrocytes are treated with the finally selected amlexanox (AMX).
# all PDE isoforms = test: HTS using all PDE isoforms as targets; type: biochemical
# Method: Compounds included in the library of 800 FDA-approved drugs were diluted 1/4 from a concentration of 100 μM and dispensed into each well in 96-well plates, and mixed with a PDE reactant to allow a PDE reaction with the drug for 1 hour at a constant temperature.
# The experiment was carried out in the same manner as used in screening of the FDA-approved drug library. […] Each of the screening library drugs were diluted 1/4 from 100 μM and dispensed into each well in 96-well plates, and mixed with a PDE reactant, followed by allowing a reaction between the drug and PDE for 1 hour for storage. After a stop solution was mixed with a AMP detection agent, the mixture was dispensed at 20 μl per well to allow a reaction for 10 minutes, followed by immediately measuring luminescence, and the experiment was performed according to a protocol provided by the kit used herein.
# The first selection started with PDE3 as a target, and after candidate drugs were selected, all PDE isoforms were tested.
# GFP-tagged mHttQ protein = test: GFP-mHttQ aggregation (GFP antibody); type: cell-based; details: cells injected with GFP-tagged mHttQ protein, AMX
# Method: A GFP-tagged mHttQ protein was injected into cells, thereby confirming a pharmacological reaction mediated by AMX using a GFP antibody. The accumulation of mHttQ in cells through aggregation was confirmed by GFP expression.
# mouse pericytes [1] = test: Zinc concentration in pericytes (Zinpyr-1 fluorescence); type: cell-based
# Description: FIG. 20 is a set of confocal microscope images of groups of mouse pericytes, which are not treated (CTL) or treated with finally-selected amlexanox (AMX) (PDEi), in which, to measure a zinc concentration, fluorescence intensity was detected by treating the cells with a fluorescent dye (Zinpyr-1) for detecting zinc ions.
# 5×FAD mice = test: Morris water maze test (hidden platform test and probe test) in Alzheimer's disease animal model; type: in vivo, mouse
# Method: To confirm whether amlexanox (AMX; Z007) is effective even for animal models, an experiment was conducted using 5×FAD mice, which is one of the Alzheimer-type dementia animal models. Here, the 5×FAD mice, which is one of the Alzheimer-type dementia animal models, were provided in Korea and used.
# Drug administration and behavioral evaluation were conducted on the same schedule as in FIG. […] Immediately after the end of the administration, a Morris water maze test, which is a behavioral experiment that can evaluate memory and learning ability, was conducted.
# The Morris water maze test was performed as described in Behay. Brain Res. (155, 185-196) (refer to Behay. Brain Res., 155, 185-196). A water tank used in the water maze test is a cylindrical tank with a diameter of 90 cm and a height of 60 cm, and filled with water in which milk powder is diluted at 23±2[…] during a test period. In the tank, a transparent platform was installed 1 cm below the water surface, and four signs were placed outside the tank. The motion trajectory of a mouse was analyzed through a video tracking system (Smart3.0, Panlab, USA).
# During the trial period, the mice were placed into the water tank at four randomly selected starting points toward the side where the platform was not shown. In each trial, an escape latency, which is the time to find the platform after the mouse is put into the water tank, was recorded, and when finding the platform, the mouse was allowed to stay on the platform for 10 seconds and then moved to a home cage. […] Each trial was performed four times a day for 5 days.
# A probe test was conducted on the last […] of the test. After the platform was removed, the test was performed by allowing a mouse to swim in a water tank for 60 seconds and recording the time to first enter the location of the platform and how many times the mouse passed the location.
# [2] = system: amyloid beta-accumulated pericytes and astrocytes; test: Amyloid beta expression pattern on AMX treatment (western blotting); type: cell-based, mouse; details: amyloid beta injected and accumulated in pericytes and astrocytes, then AMX
# Method: (§3) For astrocyte culture, first, cerebral cortices (neocortices) were dissociated from murine fetuses (3 weeks old), and the obtained cortical tissue was divided into single cells. […] New cells were cultured and used each time without passaging.
# as §1, §2
# mouse pericytes [3] = test: Lysosome pH in bafilomycin A1-treated pericytes (LysoSensor, confocal microscope); type: cell-based; details: cells alkalized by bafilomycin A1
# Description: A system that can visualize changes in intracellular lysosome pH with LysoSensor, which is a pH-sensitive lysosomal dye, in mouse pericytes using a confocal microscope was established (refer to Example 6) to observe whether amlexanox (AMX) is involved in the pH change of lysosomes in cells.
# FIG. 19 is a set of time-dependent confocal microscope images (left) of mouse pericytes when being treated with Bafilomycin A1, which is a vATPase inhibitor, and then stained with LysoSensor, and quantified data (right) thereof.
# Here, the images on the left side of FIG. 19 are obtained by treating mouse pericytes with bafilomycin A1, which is a vATPase inhibitor, and analyzing the cells using LysoSensor over time by a confocal microscope (top), and by treating the bafilomycin A1-treated mouse pericytes with the finally selected amlexanox (AMX) and analyzing the cells using LysoSensor over time by a confocal microscope (bottom).
# G93A SOD-1 = G93A SOD-1 accumulation on AMX treatment (western blotting); type: cell-based
# Method: as §1, §2
# cathepsin B = test: Lysosomal function activity in astrocytes: degree of hydrolysis of cathepsin B; type: cell-based, mouse; details: bafilomycin A1-treated mouse astrocytes
# Method: Samples stained with enzymatic dyes such as cathepsin B and cathepsin L were administered into the cell culture to allow a reaction for 30 minutes, and changes in activity of lysosomes in cells were confirmed using a confocal microscope.
# Astrocytes were stained with a fluorescence-tagged lysosomal protein, and the degrees of hydrolysis of cathepsin B and cathepsin L, which are lysosomal proteins, were analyzed.
# FIG. 21 is a set of time-dependent confocal microscope images of mouse astrocytes, which are treated with bafilomycin A1, which is a vATPase inhibitor, to assess the degree of hydrolysis of cathepsin B (top) and cathepsin L (bottom).
# astrocytes = test: H2O2 oxidative damage cell death in astrocytes (LDH method); type: cell-based; details: H2O2, after 24 hours
# Method: as §3
# Specifically, cell death caused by oxidative damage was induced by injecting H2O2 into astrocytes, a cell culture model similar to the animal model with a neurodegenerative disease such as Alzheimer's disease or Lou Gehrig's disease was manufactured. To confirm the cell protective effect of amlexanox (AMX) in the cell model manufactured as described above, an untreated H2O2 control and an experimental group produced by administering amlexanox (AMX) into the untreated H2O2 control were prepared, and after 24 hours, cell death was quantitatively assessed by a LDH method.
# [4] = 1 mg/kg and 2.5 mg/kg intraperitoneal, compared with Veh group
structure (smiles),measurement,setting,value
"CC(C)c1ccc2oc3nc(N)c(C(=O)O)cc3c(=O)c2c1 [amlexanox, 2-amino-7-isopropyl-5-oxo-5H-[1]benzopyrano[2,3-b] pyridine-3-carboxylic acid]",accumulation of toxic protein Tau,P301L tau,reduced
same,reducing efficacy for all PDE isoforms,all PDE isoforms,excellent reducing efficacy
same,GFP expression (aggregated GFP-mHttQ protein),GFP-tagged mHttQ protein,decrease
same,concentration of zinc in the cell,mouse pericytes [1],restored and increased to a normal level
same,number of passing the target point,5×FAD mice; [4],increases
same,time to find the target point,5×FAD mice; [4],increase
same,memory and learning ability,5×FAD mice; AMX-administered,improved
same,aggregation of amyloid beta protein,[2],inhibited
same,time to restore (acidify) the lysosome pH environment to the original state,mouse pericytes [3],≤ 60 minutes
same,accumulation of toxic protein G93A SOD-1,G93A SOD-1,reduced
same,time to restore lysosomal activity of cathepsin B to the original state,cathepsin B,≤ 60 min
same,cell death,astrocytes,up to 40%
